Measured values reported in patent US11554124B2, “Hematopoiesis-enhancing agent” (priority 2018, dated 2023).

Legend:
[1] = Complete blood count of peripheral blood of treated mice; assay type: in vivo; details: CLEU 50 mg/body i.p.
Procedure: Wild-type mice with a genetic background of C57BL/6J were purchased from Charles River Laboratories, Inc. Mice at 8 to 14 weeks of age were used for analysis. For CLEU treatment (50 mg/body), a solution of cycloleucine (CLEU) was prepared by diluting cycloleucine (CLEU) (Sigma) in PBS (50 mg/ml), and 1 ml of the CLEU solution was administered intraperitoneally. For AKBA treatment (2 mg/body), 2 mg AKBA (Enzo Life Sciences)/20% DMSO/1 mL PBS solution was administered intraperitoneally. Vehicle without AKBA was used as a control. For measuring complete blood count of peripheral blood, peripheral blood was collected from facial veins and counted by use of an automated animal blood cell counter (microsemi LC-662). All of the experiments conducted in this study were approved by the Animal Experiment Committee of the Environmental Safety Committee of Tohoku University.

erythropoietin = assay: Serum erythropoietin levels determined by ELISA; assay type: in vivo, mouse; details: CLEU 50 mg/body i.p., vs PBS
From the text: FIG. 2 is the experimental result showing that a significant erythropoiesis was induced independently of erythropoietin as a result of SAM reduction by CLEU. Panel A: Abundance of SAM in cells selected from bone marrow subset II treated with PBS or CLEU (Day 2). Panel B: Peripheral blood hemoglobin concentration on the days indicated after PBS or CLEU treatment. Panel C: Total bone marrow cells harvested from the left and right femur and tibiae of PBS or CLEU treated mouse (Day 2). Panel D: Representative image (photograph) of tibia of PBS or CLEU treated mouse (Day 2). Panels E and F: Matured bone marrow cells from each group analyzed by flow cytometry (Day 2). Representative results of flow cytometric analysis are shown in Panel E. Cumulative cell numbers in each of the indicated groups are shown in F. Red blood cell (Ter119^+ Gr1^− B220^− CD4^− CD8^−), myeloid (Gr1^+ Ter119^− B220^− CD4^− CD8^−), and B cells (B220^+ Ter119^− Gr1^− CD4^− CD8^−). Panels G and H: Numbers of bone marrow erythroblasts in each of the subsets analyzed by flow cytometry (Day 2). […] Panel L: Serum erythropoietin levels determined by ELISA. […] For measuring complete blood count of peripheral blood, peripheral blood was collected from facial veins and counted by use of an automated animal blood cell counter (microsemi LC-662). […]

[2] = test system: trimethylation of lysine 9 of histone H3 (H3K9me3); assay: Western blot of H3K9me3 in bone marrow erythroblast subset II; assay type: in vivo, mouse; details: CLEU, BM erythroblast subset II, Day 2, vs PBS
From the text: FIG. 4 is the experimental result showing that epigenetic demethylation induces the final maturation of erythroblasts. Panel A: WGBS (whole genome bisulfite sequencing) results of bone marrow erythroblast subset II harvested from CLEU or PBS treated mouse (Day 2) (CLEU; n=2, PBS; n=2). Panel B: Difference in expression levels versus difference in CpG methylation of the promoter for all expressed genes (at least one of FPKM>10 and CV<0.5). The correlation (Cor) was −0.08. […] The correlation (Cor) was −0.11. Panel D: Images (photographs) showing western blot (WB) results of trimethylation of lysine 9 of histone H3 (H3K9me3) on bone marrow erythroblast subset II harvested from CLEU or PBS treated mouse (Day 2). Panels E-G: In vitro red blood cell differentiation of Human CD34^+ cord blood cells. Panel E: Representative results of flow cytometric analysis. Panel F: Cumulative results for the indicated cell population. Panel G: Cumulative results for CD34 EMI (CD34 red blood cell maturation index: CD71^+ GlyA^+/CD71^+ GlyA^−). Each point shown in the box plots represents each technical replicate. Asterisk indicates P<0.001.
The overall transcriptional changes observed as above could be attributed to epigenetic modification changes due to the reduced abundance of intracellular SAM (Panel A of FIG. 2). […]

For `NC1(C(=O)O)CCCC1` [CLEU, cycloleucine], the hematocrit ([1]; Days 1-6, vs PBS) was “marked increase”, the platelet counts ([1]; Days 1-6, vs PBS) was “no particularly consistent differences” and the red blood cells ([1]; Days 1-6, vs PBS) was “marked increase”. For the same compound, the “white blood cell counts” value ([1]; Days 1-6, vs PBS) was “no particularly consistent differences”, the hemoglobin levels ([1]; peripheral blood, vs PBS) was “marked increase” and the serum erythropoietin levels (erythropoietin) was “significantly down-regulated”. For the same compound, the “trimethylation of H3K9” value [2] was “decreased”.
